Experimental data reported in patent publication US20230310330A1, “PEPTIDIC OLIGOMERS AND METHODS OF USING THE SAME” (BIOVENTURES, LLC, priority 2022, published 2023).
Where two headings read alike, the source gives them in different places.

What was measured:
vacuolar ATPase = assay: Bafilomycin A1 block of FITC-labeled CPP translocation, flow cytometry; format: cell-based
From the text: FIG. 15: Bafilomycin Al blocks CPP translocation. (A) FITC-labeled B6 and G6 are easily detected by flow cytometry.
Vacuolar ATPase aids in the transport to the interior of acidic organelles and BafA1 efficiently neutralizes the luminal pH, inhibits acidic hydrolases, and impairs the fusion among acidic organelles.

4T1 breast cancer cells = assay: In vitro cell viability assay, CellTiter-Glo, 72 hours; format: cell-based, mouse; settings: 4T1 cells
Experimental: The assay was run for 72 hours with the CellTiter-Glo assay to determine cell viability.

[1] = tested on: mouse 4T1 breast cancer cells
Experimental: Cells were incubated with varying concentrations for 48 hours, followed by CCK8 reagent. The absorbance at 450 nm was recorded.
Biocompatibility of the peptidic oligomers was characterized in a toxicity assay of the empty beta and gamma chains performed with mouse 4T1 breast cancer cells (FIG. 4). […] Cells were incubated with varying concentrations for 48 hours, followed by CCK8 reagent. The absorbance at 450 nm was recorded.

CO/C1=C\C(C)=C\[C@@H](C)[C@@H](O)[C@@H](C)C/C(C)=C/C=C/[C@H](OC)[C@@H]([C@@H](C)[C@@H](O)[C@H](C)[C@@]2(O)C[C@@H](O)[C@H](C)[C@@H](C(C)C)O2)OC1=O [Bafilomycin A1]
effect on FITC-labeled CPP binding and translocation (FITC signal) (vacuolar ATPase): blocked FITC-labeled CPP
effect on FITC-labeled CPP binding and translocation (FITC signal) (vacuolar ATPase; listed as BafA1): blocks B6-FITC binding and translocation

C[S+]([O-])CCCCN=C=S (centres unmarked) [sulforaphane, D, L sulforaphane]
concentration showing significant activity (4T1 breast cancer cells): 10 mM

CC(C)(C)OC(=O)N[C@@H](CNC(=O)[C@H](CNC(=O)[C@H](CNC(=O)[C@H](CNC(=O)[C@H](CNC(=O)[C@H](CN)NC(=O)OC(C)(C)C)NC(=O)OC(C)(C)C)NC(=O)OC(C)(C)C)NC(=O)OC(C)(C)C)NC(=O)OC(C)(C)C)C(=O)O [B6]
cellular toxicity (number of viable cells) [1]: do not display cellular toxicity

CC(C)(C)OC(=O)N[C@@H](CCNC(=O)[C@H](CCNC(=O)[C@H](CCNC(=O)[C@H](CCNC(=O)[C@H](CCNC(=O)[C@H](CCN)NC(=O)OC(C)(C)C)NC(=O)OC(C)(C)C)NC(=O)OC(C)(C)C)NC(=O)OC(C)(C)C)NC(=O)OC(C)(C)C)C(=O)O [G6]
cellular toxicity (number of viable cells) [1]: do not display cellular toxicity
